From US20090297628A1, “Use of iron in the form of a stone extract as stimulus of the synthesis of collagen by skin fibroblasts” (GATTEFOSSE SAS, priority 2005, published 2009)

Tested on: pro-collagen I in normal human fibroblasts
Experiment: Pro-collagen I content of normal human fibroblasts cultivated in a monolayer (Elisa on cell lysates)
Type: cell-based
Conditions: 10 ng/ml, 48 H incubation, p<0.05
Source text: The influence of the product on the expression of pro-collagen I is investigated in a model of normal human fibroblasts cultivated in a monolayer. The pro-collagen I is quantified using an Elisa (Enzyme Linked ImmunoSorbent Assay) kit on cell lysates. Furthermore, the proteins contained in the cell lysates are quantified by a spectrocolorimetric method according to the Bradford method. Included in the study is a negative control, consisting of the culture medium, and a positive control, represented by TGF-β (Transforming Growth Factor β) containing 10 ng/ml.
Collagens of types I, II, […], IV and V are synthesized from precursor molecules called “pro-collagen”. […]
The fibroblasts are incubated for 48 hours at 37° C., under humid atmosphere and 5% CO2 in a culture medium alone or in the presence of a reference product or increasing concentrations of active ingredients in the test. After 48 H of incubation of the test product, the type I pro-collagen and the total proteins present in the cell lysates are quantified. The results are obtained as a quantity (ng) of pro-collagen of type I C-Peptide per quantity (μg) of total proteins of the cell layer (means+/−standard deviation, S.D.). The statistical significance (*) of the differences observed between the “control” condition and each “treated” condition is evaluated by a One Way ANOVA on Ranks analysis followed by a Dunn's test (*: p<0.05). […]

## TGF-β
  Increase of the intrafibroblastic content of type I pro-collagen: 25%
